From US9175282B2, “Cellobiose 2-epimerase, its preparation and uses” (HAYASHIBARA CO., LTD., priority 2009, dated 2015)

Legend:
[1] = test system: recombinant cellobiose 2-epimerase; test: Formation of isomerized saccharides from various saccharides, effect of the amount of enzyme; type: biochemical, Caldicellulosiruptor saccharolyticus ATCC43494; conditions: for Action of the enzyme on the substrate: summary of Table 5; for Content of isomerized saccharide in the reaction mixture (%): Epilactose / Content of isomerized saccharide in the reaction mixture (%): Lactulose: GC analysis
Protocol: Each of them was dissolved into 20 mM acetate buffer (pH 6.0), admixed with the purified preparation of the recombinant cellobiose 2-epimerase, obtained by the method in Experiment 4-4, and followed the enzyme reaction under the conditions of 10% (w/v) substrate concentration, 60° C. for 72 hours. The amount of enzyme was set to 130 or 500 units/g-substrate when monosaccharide was used as the substrate, and to 1 or 130 units/g-substrate when disaccharide or trisaccharide was used as the substrate. Each reaction mixture was heated at 100° C. for 10 minutes to stop the reaction and subjected to HPLC analysis to determine the contents of isomerized saccharide, on a dry solid basis. The contents of epilactose and lactulose in the reaction mixture obtained using lactose as substrate were determined by GC analysis described in Experiment 1-2.

[2] = test system: recombinant cellobiose 2-epimerase; test: Substrate specificity of cellobiose 2-epimerase by TLC; type: biochemical, Caldicellulosiruptor saccharolyticus ATCC43494; parameters: key to Action: −: No product is detected; ±: Some products are slightly detected; +: Some products are detected; ++: Some products are clearly detected; conditions: for Action: 2% (w/w) substrate, MOPS buffer pH 8.0, 500 units/g-substrate, 60° C., 24 hours, product spot on TLC; for Action of the enzyme on the saccharide: summary of Table 3
Protocol: Substrate specificity of the enzyme was investigated by allowing the purified preparation of the recombinant cellobiose 2-epimerase, obtained by the method of Experiment 4-4, to act on various saccharides. Substrate solutions were prepared by dissolving D-glucose, D-xylose, D-allose, D-ribose, D-galactose, D-fructose, D-mannose, D-psicose, D-tagatose, L-sorbose, L-rhamnose, L-ribose, trehalose, kojibiose, nigerose, isomaltose, neotrehalose, gentiobiose, lactose, sucrose, maltulose, palatinose, maltose, maltotriose, maltotetraose, maltopentaose, maltohexaose, maltoheptaose, cellobiose, cellotriose, cellotetraose, selaginose, isomaltosyl-glucoside, isomaltotriose, panose, isopanose, erlose, maltitol, maltotriitol, methyl-α-glucoside, methyl-β-glucoside, D-glucosamine, D-galactosamine, D-glucuronic acid, N-acetyl-glucosamine, or N-acetyl-galactosamine into MOPS buffer (pH 8.0) to give a final concentration of 2% (w/w) of saccharide and 40 mM buffer.
Then, each of the resulting substrate solutions was further admixed with 500 units/g-substrate, on a dry solid basis, of the purified preparation of recombinant cellobiose 2-epimerase, obtained by the method in Experiment 4-4, and followed by the enzyme reaction at 60° C. for 24 hours. After stopping the reaction by heating the reaction mixture at 100° C. for 10 minutes, each reaction mixture was subjected to TLC analysis under the conditions in Experiment 1-2 to examine the saccharides in each mixture before and after the reaction. The substrate specificity of the enzyme was judged by investigating whether the spot of the reaction product except for the substrate is detected in the TLC chromatogram or not, and the degree of the strength of the visualized spot.

[3] = 1 unit/g-substrate, 10% (w/v) substrate, pH 6.0, 60° C., 72 hours
[4] = 130 units/g-substrate, 10% (w/v) substrate, pH 6.0, 60° C., 72 hours
[5] = 500 units/g-substrate, 10% (w/v) substrate, pH 6.0, 60° C., 72 hours

| Compound | Action [2] | further results |
| --- | --- | --- |
| O=C[C@H](O)[C@@H](O)[C@H](O[C@@H]1O[C@H](CO)[C@@H](O)[C@H](O)[C@H]1O)[C@H](O)CO [Cellobiose] | ++ | Content of isomerized saccharide in the reaction mixture (%): Cellobiulose [1, 3]: 1.7%; Content of isomerized saccharide in the reaction mixture (%): Epicellobiose [1, 3]: 27.8%; Content of isomerized saccharide in the reaction mixture (%): Cellobiulose [1, 4]: 53.2%; Content of isomerized saccharide in the reaction mixture (%): Epicellobiose [1, 4]: 13.4%; Action of the enzyme on the substrate [1]: relatively specifically acted; Action of the enzyme on the saccharide [2]: relatively strong specificity |
| OC[C@H]1O[C@@H](O[C@H]2[C@H](O)[C@@H](O)[C@H](O[C@H]3[C@H](O)[C@@H](O)[C@H](O[C@H]4[C@H](O)[C@@H](O)C(O)O[C@@H]4CO)O[C@@H]3CO)O[C@@H]2CO)[C@H](O)[C@@H](O)[C@@H]1O (stereo partly drawn) [Cellotetraose] | ++ | Action of the enzyme on the saccharide [2]: relatively strong specificity |
| OC[C@H]1O[C@@H](O[C@H]2[C@H](O)[C@@H](O)[C@H](O[C@H]3[C@H](O)[C@@H](O)C(O)O[C@@H]3CO)O[C@@H]2CO)[C@H](O)[C@@H](O)[C@@H]1O (stereo partly drawn) [Cellotriose] | ++ | Action of the enzyme on the saccharide [2]: relatively strong specificity |
| O=C[C@H](O)[C@H](O)[C@H](O)[C@H](O)CO [D-Allose] | − |  |
| O=C(CO)[C@@H](O)[C@H](O)[C@H](O)CO [D-Fructose] | ± | Content of isomerized saccharide in the reaction mixture (%): D-Glucose [1, 4]: 2.2%; Content of isomerized saccharide in the reaction mixture (%): D-Mannose [1, 4]: 2.2%; Action of the enzyme on the saccharide [2]: slightly acted on |
| N[C@H]1C(O)O[C@H](CO)[C@H](O)[C@@H]1O (stereo partly drawn) [D-Galactosamine] | − |  |
| N[C@H]1C(O)O[C@H](CO)[C@@H](O)[C@@H]1O (stereo partly drawn) [D-Glucosamine] | − |  |
| O=C[C@H](O)[C@@H](O)[C@H](O)[C@H](O)C(=O)O [D-Glucuronic acid] | − |  |
| O=C(CO)[C@H](O)[C@H](O)[C@H](O)CO [D-Psicose] | − |  |
| O=C[C@H](O)[C@H](O)[C@H](O)CO [D-Ribose] | − |  |
| O=C(CO)[C@@H](O)[C@@H](O)[C@H](O)CO [D-Tagatose] | ± | Content of isomerized saccharide in the reaction mixture (%): D-Galactose [1, 5]: 4.7%; Content of isomerized saccharide in the reaction mixture (%): D-Talose [1, 5]: 5.2%; Action of the enzyme on the saccharide [2]: slightly acted on |
| O=C[C@@H](O)[C@@H](O)[C@@H](O)[C@H](O)CO [D-Talose] |  | Content of isomerized saccharide in the reaction mixture (%): D-Galactose [1, 5]: 27.2%; Content of isomerized saccharide in the reaction mixture (%): D-Tagatose [1, 5]: 17.9% |
| O=C[C@H](O)[C@@H](O)[C@H](O)CO [D-Xylose] | − |  |
| OC[C@H]1O[C@@](CO)(O[C@H]2O[C@H](CO)[C@@H](O[C@H]3O[C@H](CO)[C@@H](O)[C@H](O)[C@H]3O)[C@H](O)[C@H]2O)[C@@H](O)[C@@H]1O [Erlose] | − |  |
| OC[C@H]1O[C@H](OC[C@H]2O[C@H](O)[C@H](O)[C@@H](O)[C@@H]2O)[C@H](O)[C@@H](O)[C@H]1O [Gentibiose] | − |  |
| OC[C@H]1O[C@H](OC[C@H]2OC(O)[C@H](O)[C@@H](O)[C@@H]2O)[C@H](O)[C@@H](O)[C@@H]1O (stereo partly drawn) [Isomaltose] | − |  |
| OC[C@H]1O[C@H](OC[C@H]2O[C@H](OC[C@H]3OC(O)[C@H](O)[C@@H](O)[C@@H]3O)[C@H](O)[C@@H](O)[C@@H]2O)[C@H](O)[C@@H](O)[C@@H]1O (stereo partly drawn) [Isomaltotriose] | − |  |
| OC[C@H]1O[C@H](O[C@H]2[C@H](O)[C@@H](O)[C@@H](OC[C@H]3OC(O)[C@H](O)[C@@H](O)[C@@H]3O)O[C@@H]2CO)[C@H](O)[C@@H](O)[C@@H]1O (stereo partly drawn) [Isopanose] | − |  |
| OC[C@H]1O[C@H](O[C@H]2C(O)O[C@H](CO)[C@@H](O)[C@@H]2O)[C@H](O)[C@@H](O)[C@@H]1O (stereo partly drawn) [Kojibiose] | − |  |
| C[C@H](O)[C@H](O)[C@@H](O)[C@@H](O)C=O [L-Rhamnose] | − |  |
| O=C[C@@H](O)[C@@H](O)[C@@H](O)CO [L-Ribose] | − |  |
| O=C(CO)[C@@H](O)[C@H](O)[C@@H](O)CO [L-Sorbose] | − |  |

| Compound | Action [2] | further results |
| --- | --- | --- |
| OC[C@H]1O[C@@H](O[C@H]2[C@H](O)[C@@H](O)C(O)O[C@@H]2CO)[C@H](O)[C@@H](O)[C@H]1O (stereo partly drawn) [Lactose] | ++ | Content of isomerized saccharide in the reaction mixture (%): Epilactose [1, 3]: 32.0%; Content of isomerized saccharide in the reaction mixture (%): Lactulose [1, 3]: 0.0%; Content of isomerized saccharide in the reaction mixture (%): Epilactose [1, 4]: 12.8%; Content of isomerized saccharide in the reaction mixture (%): Lactulose [1, 4]: 57.5%; Action of the enzyme on the substrate [1]: relatively specifically acted; Action of the enzyme on the saccharide [2]: relatively strong specificity |
| OC[C@@H](O)[C@@H](O[C@H]1O[C@H](CO)[C@@H](O)[C@H](O)[C@H]1O)[C@H](O)[C@@H](O)CO [Maltitol] | − |  |
| OC[C@H]1O[C@H](O[C@H]2[C@H](O)[C@@H](O)[C@H](O)O[C@@H]2CO)[C@H](O)[C@@H](O)[C@@H]1O [Maltose] | + | Content of isomerized saccharide in the reaction mixture (%): Epimaltose [1, 4]: 22.2%; Content of isomerized saccharide in the reaction mixture (%): Maltulose [1, 4]: 7.7%; Action of the enzyme on the saccharide [2]: acted on |
| OC[C@H]1O[C@H](O[C@H]2[C@H](O)[C@@H](O)[C@@H](O[C@H]3[C@H](O)[C@@H](O)[C@@H](O[C@H]4[C@H](O)[C@@H](O)C(O)O[C@@H]4CO)O[C@@H]3CO)O[C@@H]2CO)[C@H](O)[C@@H](O)[C@@H]1O (stereo partly drawn) [Maltotetraose] | ± | Action of the enzyme on the saccharide [2]: slightly acted on |
| OC[C@@H](O)[C@@H](O[C@H]1O[C@H](CO)[C@@H](O[C@H]2O[C@H](CO)[C@@H](O)[C@H](O)[C@H]2O)[C@H](O)[C@H]1O)[C@H](O)[C@@H](O)CO [Maltotriitol] | − |  |
| CO[C@H]1O[C@H](CO)[C@@H](O)[C@H](O)[C@H]1O [Methyl-α-glucoside] | − |  |
| CO[C@@H]1O[C@H](CO)[C@@H](O)[C@H](O)[C@H]1O [Methyl-β-glucoside] | − |  |
| CC(=O)N[C@H]1C(O)O[C@H](CO)[C@H](O)[C@@H]1O (stereo partly drawn) [N-Acetyl-galactosamine] | − |  |
| CC(=O)N[C@H]1C(O)O[C@H](CO)[C@@H](O)[C@@H]1O (stereo partly drawn) [N-Acetyl-glucosamine] | − |  |
| OC[C@H]1O[C@@H](O[C@H]2O[C@H](CO)[C@@H](O)[C@H](O)[C@H]2O)[C@H](O)[C@@H](O)[C@@H]1O [Neotrehalose] | − |  |
| OC[C@H]1O[C@H](O[C@H]2[C@H](O)[C@@H](CO)OC(O)[C@@H]2O)[C@H](O)[C@@H](O)[C@@H]1O (stereo partly drawn) [Nigerose] | − |  |
| OC[C@H]1O[C@H](OC[C@H]2OC(O)(CO)[C@@H](O)[C@@H]2O)[C@H](O)[C@@H](O)[C@@H]1O (stereo partly drawn) [Palatinose] | − |  |
| OC[C@H]1O[C@H](OC[C@H]2O[C@H](O[C@H]3[C@H](O)[C@@H](O)C(O)O[C@@H]3CO)[C@H](O)[C@@H](O)[C@@H]2O)[C@H](O)[C@@H](O)[C@@H]1O (stereo partly drawn) [Panose] | − |  |
| OC[C@H]1O[C@H](O[C@H]2O[C@H](CO)[C@@H](O)[C@H](O)[C@H]2O[C@H]2O[C@H](CO)[C@@H](O)[C@H](O)[C@H]2O)[C@H](O)[C@@H](O)[C@@H]1O [Selaginose] | − |  |
| OC[C@H]1O[C@@](CO)(O[C@H]2O[C@H](CO)[C@@H](O)[C@H](O)[C@H]2O)[C@@H](O)[C@@H]1O [Sucrose] | − |  |
| OC[C@H]1O[C@H](O[C@H]2O[C@H](CO)[C@@H](O)[C@H](O)[C@H]2O)[C@H](O)[C@@H](O)[C@@H]1O [Trehalose] | − |  |
| Isomaltosyl-glucoside | − |  |
| Maltoheptaose | ± | Action of the enzyme on the saccharide [2]: slightly acted on |
| Maltohexaose | ± | Action of the enzyme on the saccharide [2]: slightly acted on |
| Maltopentaose | ± | Action of the enzyme on the saccharide [2]: slightly acted on |
| Maltotriose | + | Content of isomerized saccharide in the reaction mixture (%): Epimaltotriose [1, 4]: 23.3%; Action of the enzyme on the saccharide [2]: acted on |
| Maltulose | ± | Action of the enzyme on the saccharide [2]: slightly acted on |
